Assay results taken from paper PMC8509980 (Chinese Medical Journal, 2021).

Target: T1, sineoculis homeobox homolog 1 (SIX1) (Homo sapiens, UniProt Q15475)
T1 sequence (Q15475 1-284): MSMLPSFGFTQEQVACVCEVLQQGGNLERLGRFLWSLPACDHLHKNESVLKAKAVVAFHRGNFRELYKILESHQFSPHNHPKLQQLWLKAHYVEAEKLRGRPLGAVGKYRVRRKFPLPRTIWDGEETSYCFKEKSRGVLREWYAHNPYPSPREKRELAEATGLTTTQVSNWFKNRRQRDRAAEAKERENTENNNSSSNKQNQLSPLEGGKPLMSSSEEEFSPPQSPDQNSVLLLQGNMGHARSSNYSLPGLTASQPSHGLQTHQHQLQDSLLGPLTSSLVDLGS
T1 sequence (Q99502 1-592 partner): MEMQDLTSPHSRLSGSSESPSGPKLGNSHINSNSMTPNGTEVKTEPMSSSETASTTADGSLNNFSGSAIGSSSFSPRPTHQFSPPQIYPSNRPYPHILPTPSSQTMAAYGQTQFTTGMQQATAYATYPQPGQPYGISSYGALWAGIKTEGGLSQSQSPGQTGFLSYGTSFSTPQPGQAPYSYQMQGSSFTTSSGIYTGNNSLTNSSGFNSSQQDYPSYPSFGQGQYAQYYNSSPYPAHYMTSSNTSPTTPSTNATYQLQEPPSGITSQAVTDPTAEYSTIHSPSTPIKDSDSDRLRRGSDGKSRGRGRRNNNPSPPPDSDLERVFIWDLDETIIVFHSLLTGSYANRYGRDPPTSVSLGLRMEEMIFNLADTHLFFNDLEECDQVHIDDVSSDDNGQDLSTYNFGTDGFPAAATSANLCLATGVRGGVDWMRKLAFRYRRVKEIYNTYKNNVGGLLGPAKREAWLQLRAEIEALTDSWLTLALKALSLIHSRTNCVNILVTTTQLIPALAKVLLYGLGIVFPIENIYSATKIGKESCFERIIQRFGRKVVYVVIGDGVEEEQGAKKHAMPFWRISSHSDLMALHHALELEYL
Experiment: AlphaScreen disruption of purified GST-SIX1/His-EYA1 interaction
Assay type: binding

| IC50 [µM] | Substance |
| --- | --- |
| 12.6 ± 1.15 | NSC0191 |
| 83.4 ± 7.24 | NSC0933 |
